In ChEMBL document CHEMBL1201861, “Genomics of Drug Sensitity in Cancer screening data, Wellcome Trust Sanger Institute”:

Assays:
Assay in all cases: cells
Type in all cases: functional, cell-based, Homo sapiens
RVH-421 = conditions: Homo sapiens, RVH-421
Description: SANGER: Inhibition of human RVH-421 cell growth in a cell viability assay.

NCI-H28 = conditions: Homo sapiens, NCI-H28;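 note: growth inhibition of human NCI-H28 cells, read out as cell viability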
Description: SANGER: Inhibition of human NCI-H28 cell growth in a cell viability assay.

H4 = conditions: Homo sapiens, H4
Description: SANGER: Inhibition of human H4 cell growth in a cell viability assay.

EW-22 = conditions: Homo sapiens, EW-22;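 note: growth inhibition of the EW-22 cell line, measured with a cell viability readout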
Description: SANGER: Inhibition of human EW-22 cell growth in a cell viability assay.

MDA-MB-361 = conditions: Homo sapiens, MDA-MB-361
RERF-LC-MS = conditions: Homo sapiens, RERF-LC-MS;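 note: growth inhibition of human RERF-LC-MS cells, read out by a cell viability assay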
Description: SANGER: Inhibition of human RERF-LC-MS cell growth in a cell viability assay.

DMS-273 = conditions: Homo sapiens, DMS-273
Description: SANGER: Inhibition of human DMS-273 cell growth in a cell viability assay.

SAOS-2 = conditions: Homo sapiens, SAOS-2;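 note: growth inhibition of human Saos-2 cells determined by a cell viability assay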
Description: SANGER: Inhibition of human Saos-2 cell growth in a cell viability assay.

D-566MG = conditions: Homo sapiens, D-566MG
SW1783 = conditions: Homo sapiens, SW1783;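 note: cell growth inhibition measured with a viability assay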
Description: SANGER: Inhibition of human SW1783 cell growth in a cell viability assay.

GCT = conditions: Homo sapiens, GCT;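 note: GCT cell line proliferation inhibition, read out with a cell viability assay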
Description: SANGER: Inhibition of human GCT cell growth in a cell viability assay.

HCC1954 = conditions: Homo sapiens, HCC1954;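 note: growth inhibition of human HCC1954 cells, read out with a cell viability assay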
Description: SANGER: Inhibition of human HCC1954 cell growth in a cell viability assay.

RMG-I = conditions: Homo sapiens, RMG-I;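 note: growth inhibition of human RMG-I cells, read out with a cell viability assay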
Description: SANGER: Inhibition of human RMG-I cell growth in a cell viability assay.

RPMI-2650 = conditions: Homo sapiens, RPMI-2650
Description: SANGER: Inhibition of human RPMI-2650 cell growth in a cell viability assay.

KNS-62 = conditions: Homo sapiens, KNS-62;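 note: inhibition of cell growth, read out with a cell viability assay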
Description: SANGER: Inhibition of human KNS-62 cell growth in a cell viability assay.

SCC-25 = conditions: Homo sapiens, SCC-25;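 note: growth inhibition of SCC-25 cells, measured with a cell viability assay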
Description: SANGER: Inhibition of human SCC-25 cell growth in a cell viability assay.

RT-112 = conditions: Homo sapiens, RT-112
Description: SANGER: Inhibition of human RT-112 cell growth in a cell viability assay.

SCC-9 = conditions: Homo sapiens, SCC-9;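 note: Read-out is a cell viability assay, with values giving inhibition of cell growth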
Description: SANGER: Inhibition of human SCC-9 cell growth in a cell viability assay.

OAW-42 = conditions: Homo sapiens, OAW-42;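 note: growth inhibition of OAW-42 cells, read out with a cell viability assay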
Description: SANGER: Inhibition of human OAW-42 cell growth in a cell viability assay.

CAL-12T = conditions: Homo sapiens, CAL-12T;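 note: growth inhibition of human CAL-12T cells, read out with a cell viability assay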
Description: SANGER: Inhibition of human CAL-12T cell growth in a cell viability assay.

NCI-H661 = conditions: Homo sapiens, NCI-H661;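 note: cell viability assay read-out, IC50 being the concentration that inhibits growth of the cells by half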
Description: SANGER: Inhibition of human NCI-H661 cell growth in a cell viability assay.

OVCAR-8 = conditions: Homo sapiens, OVCAR-8;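 note: growth inhibition of human OVCAR-8 cells, read out by a cell viability assay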
Description: SANGER: Inhibition of human OVCAR-8 cell growth in a cell viability assay.

KYSE-150 cell line = conditions: Homo sapiens, KYSE-150;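 note: growth inhibition of human KYSE-150 cells, read out with a cell viability assay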
Description: SANGER: Inhibition of human KYSE-150 cell growth in a cell viability assay.

HSC-2 = conditions: Homo sapiens, HSC-2;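 note: growth inhibition of human HSC-2 cells, read out by a cell viability assay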
Description: SANGER: Inhibition of human HSC-2 cell growth in a cell viability assay.

769-P = conditions: Homo sapiens, 769-P
Description: SANGER: Inhibition of human 769-P cell growth in a cell viability assay.

HCC1419 = conditions: Homo sapiens, HCC1419;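 note: growth inhibition of human HCC1419 cells, read out as cell viability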
Description: SANGER: Inhibition of human HCC1419 cell growth in a cell viability assay.

786-0 = conditions: Homo sapiens
Description: SANGER: Inhibition of human 786-0 cell growth in a cell viability assay.

HCC1569 = conditions: Homo sapiens, HCC1569;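 note: growth inhibition of human HCC1569 cells, read out with a cell viability assay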
Description: SANGER: Inhibition of human HCC1569 cell growth in a cell viability assay.

COLO-741 = conditions: Homo sapiens, COLO-741
Description: SANGER: Inhibition of human COLO-741 cell growth in a cell viability assay.

A549 = conditions: Homo sapiens, A549;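 note: growth inhibition of A549 cells, read out with a cell viability assay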
Description: SANGER: Inhibition of human A549 cell growth in a cell viability assay.

SJRH30 = conditions: Homo sapiens, SJRH30;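 note: growth inhibition of human SJRH30 cells, read out with a cell viability assay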
Description: SANGER: Inhibition of human SJRH30 cell growth in a cell viability assay.

ZR-75-30 = conditions: Homo sapiens, ZR-75-30;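 note: growth inhibition of ZR-75-30 cells, measured with a cell viability readout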
Description: SANGER: Inhibition of human ZR-75-30 cell growth in a cell viability assay.

SW1088 = conditions: Homo sapiens, SW1088;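 note: growth inhibition of human SW1088 cells, read out by a cell viability assay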
Description: SANGER: Inhibition of human SW1088 cell growth in a cell viability assay.

KYSE-410 = conditions: Homo sapiens, KYSE-410;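 note: growth inhibition of KYSE-410 cells, measured through a cell viability readout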
Description: SANGER: Inhibition of human KYSE-410 cell growth in a cell viability assay.

H-EMC-SS = conditions: Homo sapiens, H-EMC-SS
Description: SANGER: Inhibition of human H-EMC-SS cell growth in a cell viability assay.

SBC-5 = conditions: Homo sapiens, SBC-5;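 note: cell viability assay read-out, IC50 is the concentration that inhibits growth of the cells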
Description: SANGER: Inhibition of human SBC-5 cell growth in a cell viability assay.

CAL-51 = conditions: Homo sapiens, CAL-51;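 note: human CAL-51 cell line, growth inhibition read out via a cell viability assay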
Description: SANGER: Inhibition of human CAL-51 cell growth in a cell viability assay.

NCI-H2342 = conditions: Homo sapiens, NCI-H2342;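 note: growth inhibition of the cancer cell line, determined with a cell viability assay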
Description: SANGER: Inhibition of human NCI-H2342 cell growth in a cell viability assay.

MKN-28 = conditions: Homo sapiens, MKN-28;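 note: cell viability assay read-out, IC50 reflects suppression of growth of human MKN-28 cells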
Description: SANGER: Inhibition of human MKN28 cell growth in a cell viability assay.

Row | Compound | IC50 (RVH-421) [µM] | IC50 (NCI-H28) [µM] | IC50 (H4) [µM] | IC50 (EW-22) [µM] | IC50 (MDA-MB-361) [µM] | IC50 (RERF-LC-MS) [µM] | IC50 (DMS-273) [µM] | IC50 (SAOS-2) [µM] | IC50 (D-566MG) [µM] | IC50 (SW1783) [µM] | IC50 (GCT) [µM] | IC50 (HCC1954) [µM] | IC50 (RMG-I) [µM] | IC50 (RPMI-2650) [µM] | IC50 (KNS-62) [µM] | IC50 (SCC-25) [µM] | IC50 (RT-112) [µM] | IC50 (SCC-9) [µM] | IC50 (OAW-42) [µM] | IC50 (CAL-12T) [µM] | further results
1 | CS(=O)(=O)c1ccc(C(=O)Nc2ccc(Cl)c(-c3ccccn3)c2)c(Cl)c1 [VISMODEGIB] | > 10 | > 10 | > 10 | > 10 | > 10 | > 10 | > 10 | > 10 | > 10 | > 10 | > 10 | > 10 | > 10 | > 10 | > 10 | > 10 | > 10 | > 10 | > 10 | > 10 | IC50 (NCI-H661): > 10 µM; IC50 (OVCAR-8): > 10 µM; IC50 (KYSE-150 cell line): > 10 µM; IC50 (HSC-2): > 10 µM; IC50 (769-P): > 10 µM; IC50 (HCC1419): > 10 µM; IC50 (786-0): > 10 µM; IC50 (HCC1569): > 10 µM; IC50 (COLO-741): > 10 µM; IC50 (A549): > 10 µM; IC50 (SJRH30): > 10 µM; IC50 (ZR-75-30): > 10 µM; IC50 (SW1088): > 10 µM; IC50 (KYSE-410): > 10 µM; IC50 (H-EMC-SS): > 10 µM; IC50 (SBC-5): > 10 µM; IC50 (CAL-51): > 10 µM; IC50 (NCI-H2342): > 10 µM; IC50 (MKN-28): > 10 µM
2 | Nc1cccc2c1CN(C1CCC(=O)NC1=O)C2=O (stereo unspecified) [LENALIDOMIDE] | > 5 | > 5 | > 5 | > 5 | > 5 | > 5 | > 5 | > 5 | > 5 | > 5 | > 5 | > 5 | > 5 | > 5 | > 5 | > 5 | > 5 | > 5 | > 5 | > 5 | IC50 (NCI-H661): > 5 µM; IC50 (OVCAR-8): > 5 µM; IC50 (KYSE-150 cell line): > 5 µM; IC50 (HSC-2): > 5 µM; IC50 (769-P): > 5 µM; IC50 (HCC1419): > 5 µM; IC50 (786-0): > 5 µM; IC50 (HCC1569): > 5 µM; IC50 (COLO-741): > 5 µM; IC50 (A549): > 5 µM; IC50 (SJRH30): > 5 µM; IC50 (ZR-75-30): > 5 µM; IC50 (SW1088): > 5 µM; IC50 (KYSE-410): > 5 µM; IC50 (H-EMC-SS): > 5 µM; IC50 (SBC-5): > 5 µM; IC50 (CAL-51): > 5 µM; IC50 (NCI-H2342): > 5 µM; IC50 (MKN-28): > 5 µM
3 | Cc1cn(-c2cc(NC(=O)c3ccc(C)c(Nc4nccc(-c5cccnc5)n4)c3)cc(C(F)(F)F)c2)cn1 [NILOTINIB] | > 2 | > 2 | > 2 | > 2 | > 2 | > 2 | > 2 | > 2 | > 2 | > 2 | > 2 | > 2 | > 2 | > 2 | > 2 | > 2 | > 2 | > 2 | > 2 | > 2 | IC50 (NCI-H661): > 2 µM; IC50 (OVCAR-8): > 2 µM; IC50 (KYSE-150 cell line): > 2 µM; IC50 (HSC-2): > 2 µM; IC50 (769-P): > 2 µM; IC50 (HCC1419): > 2 µM; IC50 (786-0): > 2 µM; IC50 (HCC1569): > 2 µM; IC50 (COLO-741): > 2 µM; IC50 (A549): > 2 µM; IC50 (SJRH30): > 2 µM; IC50 (ZR-75-30): > 2 µM; IC50 (SW1088): > 2 µM; IC50 (KYSE-410): > 2 µM; IC50 (H-EMC-SS): > 2 µM; IC50 (SBC-5): > 2 µM; IC50 (CAL-51): > 2 µM; IC50 (NCI-H2342): > 2 µM; IC50 (MKN-28): > 2 µM
4 | CC(C)CCN1c2nc(Nc3cc(F)c(O)c(F)c3)ncc2N(C)C(=O)C1C (stereo unspecified) | > 5 | > 5 | 2.48 | > 5 | > 5 | > 5 | > 5 | > 5 | 2.91 | > 5 | 2.31 | 4.26 | > 5 | > 5 | > 5 | > 5 | > 5 | > 5 | > 5 | 4.06 | IC50 (NCI-H661): > 5 µM; IC50 (OVCAR-8): > 5 µM; IC50 (KYSE-150 cell line): 2.15 µM; IC50 (HSC-2): > 5 µM; IC50 (769-P): > 5 µM; IC50 (HCC1419): > 5 µM; IC50 (786-0): > 5 µM; IC50 (HCC1569): > 5 µM; IC50 (COLO-741): > 5 µM; IC50 (A549): 1.31 µM; IC50 (SJRH30): > 5 µM; IC50 (ZR-75-30): > 5 µM; IC50 (SW1088): > 5 µM; IC50 (KYSE-410): > 5 µM; IC50 (H-EMC-SS): > 5 µM; IC50 (SBC-5): > 5 µM; IC50 (CAL-51): 4.87 µM; IC50 (NCI-H2342): > 5 µM; IC50 (MKN-28): > 5 µM
